Measured values reported in patent US9663528B2, “Substituted 1,2,3,4,6,8,12,12a-octahydro-1,4-methanodipyrido[1,2-a:1',2'-d]pyrazines and methods for treating viral infections” (priority 2012, dated 2017).
Like-named read-outs stand apart in the source and are kept apart here.

How the values were obtained:
in vitro = settings: human
Protocol: For the antiviral assay utilizing MT4 cells, 0.4 μL of […] test concentration of 3-fold serially diluted compound in DMSO was added to 40 μL of cell growth medium (RPMI 1640, 10% FBS, 1% penicilline/Streptomycine, 1% L-Glutamine, 1% HEPES) in each well of 384-well assay plates (10 concentrations) in quidruplicate.
1 mL aliquots of 2×10^6 MT4 cells are pre-infected for 1 and 3 hours respectively at 37° C. with 25 μL (MT4) or of either cell growth medium (mock-infected) or a fresh 1:250 dilution of an HIV-IIIb concentrated ABI stock (0.004 m.o.i. for MT4 cells). Infected and uninfected cells are diluted in cell growth medium and 35 μL of 2000 (for MT4) cells is added to each well of the assay plates.
Assay plates were then incubated in a 37° C. incubator. After 5 days of incubation, 25 μL of 2× concentrated CellTiter-Glo™ Reagent (catalog #G7573, Promega Biosciences, Inc., Madison, Wis.) was added to each well of the assay plate. Cell lysis was carried out by incubating at room temperature for 2-3 minutes, and then chemiluminescence was read using the Envision reader (PerkinElmer).

PXR = PXR (Homo sapiens (Human), UniProt O75469); assay: Human PXR activation assay (luciferase reporter gene assay, DPX2 cells); format: cell-based; settings: human
Chain of PXR (O75469 whole entry): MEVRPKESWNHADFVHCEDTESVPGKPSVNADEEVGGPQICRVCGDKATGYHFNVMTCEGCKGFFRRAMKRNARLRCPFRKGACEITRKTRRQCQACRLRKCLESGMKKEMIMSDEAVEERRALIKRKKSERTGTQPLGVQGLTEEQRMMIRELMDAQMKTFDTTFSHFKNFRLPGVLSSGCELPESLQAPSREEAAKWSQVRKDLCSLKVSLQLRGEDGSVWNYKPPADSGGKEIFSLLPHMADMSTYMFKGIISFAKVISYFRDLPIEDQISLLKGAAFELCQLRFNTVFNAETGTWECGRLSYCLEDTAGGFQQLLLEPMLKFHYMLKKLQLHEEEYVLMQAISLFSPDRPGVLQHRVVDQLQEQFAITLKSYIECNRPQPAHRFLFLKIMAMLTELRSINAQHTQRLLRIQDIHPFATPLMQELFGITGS
Protocol: A stably transformed tumor cell line (DPX2) was plated on 96-well microtiter plates. DPX2 cells harbor the human PXR gene (NR112) and a luciferase reporter gene linked to two promoters identified in the human CYP3A4 gene, namely XREM and PXRE. […] The number of viable cells was determined and the reporter gene activity was assessed. Positive control: […]

[1] = MT-4 cells, mock-infected, CC50 nM in MT-4, MT-4 cells, 5 days incubation
[2] = 15 μM, relative to maximum fold induction by 10 or 20 μM rifampicin, DPX2 cells, 24 hours, read-out: % Emax at 15 μM

SMILES | CC50 at 5 days (in vitro; CC50 nM in MT-4) | Emax at 24 h, 15 µM (PXR) | CC50 at 5 days (in vitro; [1]) | Emax at 24 h, 15 µM (PXR; [2])
O=C(N[C@@H](c1ccc(F)cc1F)C(F)(F)F)c1cn2c(c(O)c1=O)C(=O)N1C(C2)O[C@@H]2CC[C@H]1C2 (stereo partly drawn) [Compound 54, (2R,5S)-N—((S)-1-(2,4-difluorophenyl)-2,2,2-trifluoroethyl)-8-hydroxy-7,9-dioxo-2,3,4,5,7,9,13,13a-octahydro-2,5-methanopyrido[1′,2′:4,5]pyrazino[2,1-b][1,3]oxazepine-10-carboxamide] | 3240 nM | 2% | – | –
O=C(NCc1c(F)cc(F)cc1F)c1cn2c(c(O)c1=O)C(=O)N1[C@H]3CCC[C@H](C3)[C@H]1C2 [Compound 85, (6aS,7R,11S)-1-hydroxy-2,13-dioxo-N-(2,4,6-trifluorobenzyl)-6,6a,7,8,9,10,11,13-octahydro-2H-7,11-methanopyrido[1′,2′:4,5]pyrazino[1,2-a]azepine-3-carboxamide] | 10400 nM | 77% | – | –
O=C(NCc1c(F)ccc(Cl)c1F)c1cn2c(c(O)c1=O)C(=O)N1[C@H]3CC[C@H](C3)[C@@H]1C2 [Compound 73, (1R,4S,12aR)-N-(3-chloro-2,6-difluorobenzyl)-7-hydroxy-6,8-dioxo-1,2,3,4,6,8,12,12a-octahydro-1,4-methanodipyrido[1,2-a:1′,2′-d]pyrazine-9-carboxamide] | 9190 nM | 7% | – | –
O=C(NCc1cccc(Cl)c1Cl)c1cn2c(c(O)c1=O)C(=O)N1[C@H]3CC[C@H](C3)[C@@H]1C2 [Compound 60, (1R,4S,12aR)-N-(2,3-dichlorobenzyl)-7-hydroxy-6,8-dioxo-1,2,3,4,6,8,12,12a-octahydro-1,4-methanodipyrido[1,2-a:1′,2′-d]pyrazine-9-carboxamide] | 3310 nM | 3% | – | –
C[C@H]1C[C@@H]2C[C@H]1N1C(=O)c3c(O)c(=O)c(C(=O)NCc4c(F)cc(F)cc4F)cn3C[C@H]21 [Compound 86, (1R,3S,4R,12aS)-7-hydroxy-3-methyl-6,8-dioxo-N-(2,4,6-trifluorobenzyl)-1,2,3,4,6,8,12,12a-octahydro-1,4-methanodipyrido[1,2-a:1′,2′-d]pyrazine-9-carboxamide] | 22400 nM | 30% | – | –
O=C(NCc1ccc(F)cc1C(F)(F)F)c1cn2c(c(O)c1=O)C(=O)N1[C@H]3CC[C@H](C3)[C@@H]1C2 [Compound 67, (1R,4S,12aR)-N-(4-fluoro-2-(trifluoromethyl)benzyl)-7-hydroxy-6,8-dioxo-1,2,3,4,6,8,12,12a-octahydro-1,4-methanodipyrido[1,2-a:1′,2′-d]pyrazine-9-carboxamide] | 2980 nM | 0% | – | –
C[C@H]1CO[C@@H]2Cn3cc(C(=O)NC4(c5ccc(F)cc5F)CC4)c(=O)c(O)c3C(=O)N12 [Compound 37, (3S,11aR)-N-(1-(2,4-difluorophenyl)cyclopropyl)-6-hydroxy-3-methyl-5,7-dioxo-2,3,5,7,11,11a-hexahydrooxazolo[3,2-a]pyrido[1,2-d]pyrazine-8-carboxamide] | – | – | 19500 nM | 2%
O=C(NCc1cccc(F)c1F)c1cn2c(c(O)c1=O)C(=O)N1[C@@H]3CC[C@@H](C3)O[C@H]1C2 [Compound 16, (2S,5R,13aS)-N-(2,3-difluorobenzyl)-8-hydroxy-7,9-dioxo-2,3,4,5,7,9,13,13a-octahydro-2,5-methanopyrido[1′,2′:4,5]pyrazino[2,1-b][1,3]oxazepine-10-carboxamide] | 13600 nM | 17% | – | –
O=C(NCc1c(F)cc(F)cc1F)c1cn2c(c(O)c1=O)C(=O)N1[C@@H]3C[C@@H](C(F)C3F)[C@@H]1C2 (stereo partly drawn) [Compound 103, (1R,4R,12aR)-2,3-difluoro-7-hydroxy-6,8-dioxo-N-(2,4,6-trifluorobenzyl)-1,2,3,4,6,8,12,12a-octahydro-1,4-methanodipyrido[1,2-a:1′,2′-d]pyrazine-9-carboxamide] | 35100 nM | 0% | – | –
O=C(NCc1ccc(F)c(F)c1F)c1cn2c(c(O)c1=O)C(=O)N1[C@@H]3CC[C@@H](C3)O[C@H]1C2 [Compound 44, (13aS)-8-hydroxy-7,9-dioxo-N-(2,3,4-trifluorobenzyl)-2,3,4,5,7,9,13,13a-octahydro-2,5-methanopyrido[1′,2′:4,5]pyrazino[2,1-b][1,3]oxazepine-10-carboxamide] | 9870 nM | 4% | – | –
C[C@@H](NC(=O)c1cn2c(c(O)c1=O)C(=O)N1[C@H]3CC[C@H](C3)O[C@@H]1C2)c1ccc(F)cc1 [Compound 10, (2R,5S,13aR)-N—((R)-1-(4-fluorophenyl)ethyl)-8-hydroxy-7,9-dioxo-2,3,4,5,7,9,13,13a-octahydro-2,5-methanopyrido[1′,2′:4,5]pyrazino[2,1-b][1,3]oxazepine-10-carboxamide] | 3670 nM | 19% | – | –
O=C(NCc1c(F)cc(F)cc1Cl)c1cn2c(c(O)c1=O)C(=O)N1[C@H]3CC[C@H](C3)[C@@H]1C2 [Compound 93, (1R,4S,12aR)-N-(2-chloro-4,6-difluorobenzyl)-7-hydroxy-6,8-dioxo-1,2,3,4,6,8,12,12a-octahydro-1,4-methanodipyrido[1,2-a:1′,2′-d]pyrazine-9-carboxamide] | 6160 nM | 9% | – | –
O=C(NCc1ccc(Cl)cc1F)c1cn2c(c(O)c1=O)C(=O)N1[C@@H]3CC[C@@H](C3)O[C@H]1C2 [Compound 17, (2S,5R,13aS)-N-(4-chloro-2-fluorobenzyl)-8-hydroxy-7,9-dioxo-2,3,4,5,7,9,13,13a-octahydro-2,5-methanopyrido[1′,2′:4,5]pyrazino[2,1-b][1,3]oxazepine-10-carboxamide] | 6610 nM | 7% | – | –
O=C(NCc1ccccc1F)c1cn2c(c(O)c1=O)C(=O)N1[C@@H]3CC[C@@H](C3)O[C@H]1C2 [Compound 23, (2S,5R,13aS)-N-(2-fluorobenzyl)-8-hydroxy-7,9-dioxo-2,3,4,5,7,9,13,13a-octahydro-2,5-methanopyrido[1′,2′:4,5]pyrazino[2,1-b][1,3]oxazepine-10-carboxamide] | 13400 nM | 45% | – | –
O=C(NCc1ccc(F)c(F)c1)c1cn2c(c(O)c1=O)C(=O)N1[C@H]3CC[C@H](C3)[C@@H]1C2 [Compound 66, (1R,4S,12aR)-N-(3,4-difluorobenzyl)-7-hydroxy-6,8-dioxo-1,2,3,4,6,8,12,12a-octahydro-1,4-methanodipyrido[1,2-a:1′,2′-d]pyrazine-9-carboxamide] | 11800 nM | 0% | – | –
O=C(NCc1c(F)cc(F)cc1F)c1cn2c(c(O)c1=O)C(=O)N1[C@H]3C[C@H](C3)[C@@H]1C2 (single isomer, unassigned) [Compound 97] | – | – | 17300 nM | 9%
O=C(NCc1ccc(F)c(Cl)c1F)c1cn2c(c(O)c1=O)C(=O)N1[C@@H]3C[C@H]([C@@H]1C2)C(F)(F)C3 [Compound 58, (1R,4R,12aR)-N-(3-chloro-2,4-difluorobenzyl)-2,2-difluoro-7-hydroxy-6,8-dioxo-1,2,3,4,6,8,12,12a-octahydro-1,4-methanodipyrido[1,2-a:1′,2′-d]pyrazine-9-carboxamide] | 7690 nM | 1% | – | –
O=C(NCc1ccc(F)cc1)c1cn2c(c(O)c1=O)C(=O)N1[C@@H]3CC[C@@H](C3)O[C@H]1C2 [Compound 15, (2S,5R,13aS)-N-(4-fluorobenzyl)-8-hydroxy-7,9-dioxo-2,3,4,5,7,9,13,13a-octahydro-2,5-methanopyrido[1′,2′:4,5]pyrazino[2,1-b][1,3]oxazepine-10-carboxamide] | 16300 nM | 20% | – | –
O=C(NCc1ccc(F)c(Cl)c1F)c1cn2c(c(O)c1=O)C(=O)N1[C@H]3CC[C@H](C3)[C@H]1C2 [Compound 61, (1R,4S,12aS)-N-(3-chloro-2,4-difluorobenzyl)-7-hydroxy-6,8-dioxo-1,2,3,4,6,8,12,12a-octahydro-1,4-methanodipyrido[1,2-a:1′,2′-d]pyrazine-9-carboxamide] | 25900 nM | 1% | – | –
O=C(NCc1ccc(F)cc1F)c1cn2c(c(O)c1=O)C(=O)N1C(C2)[N@@]2CCC[C@@H]1C2 (stereo partly drawn) [Compound 20, (1S,5R)-N-(2,4-difluorobenzyl)-8-hydroxy-7,9-dioxo-2,3,4,5,7,9,13,13a-octahydro-1,5-methanopyrido[1′,2′:4,5]pyrazino[1,2-a][1,3]diazepine-10-carboxamide] | 28000 nM | 2% | – | –
O=C(NCc1cccc(Cl)c1F)c1cn2c(c(O)c1=O)C(=O)N1[C@H]3CC[C@H](C3)O[C@@H]1C2 [Compound 88, (2R,5S,13aR)-N-(3-chloro-2-fluorobenzyl)-8-hydroxy-7,9-dioxo-2,3,4,5,7,9,13,13a-octahydro-2,5-methanopyrido[1′,2′:4,5]pyrazino[2,1-b][1,3]oxazepine-10-carboxamide] | 3230 nM | 27% | – | –
